Experimental data reported in patent US11291648B2, “Powdered formulations of cromolyn sodium and alpha-lactose” (The General Hospital Corporation, priority 2018, dated 2022).
Read-outs that look alike come from different tables or passages of the source.

Experiments:
[1] = Table 5, Gilani et al.; cited from earlier work
[2] = Particle size distribution (PSD) of formulation components; assay type: physicochemical; conditions: for D10 / D50 / D90: Cromolyn API (micronized), Table 2; for D10 (3-6 μm) / D50 (20-25 μm) / D90 (50-60 μm): α-Lactose (DFE Pharma Lactohale LH201), Table 3; for D50 (<5 μm) / D90 (<10 μm): Magnesium Stearate (micronized), Table 4
Excerpt: The methodology included particle size determination (PSD); powdered x-ray crystallization diffraction (PXRD); and gravimetric vapor sorption (GVS).

Molecule: OC[C@H]1O[C@@H](O[C@H]2[C@H](O)[C@@H](O)[C@@H](O)O[C@@H]2CO)[C@H](O)[C@@H](O)[C@H]1O [Batch P325M, α-Lactose]
- D10 [1]: 6.6 ± 0.8
- D90 [1]: 74.1 ± 3.8

Molecule: OC[C@H]1O[C@@H](O[C@H]2[C@H](O)[C@@H](O)[C@@H](O)O[C@@H]2CO)[C@H](O)[C@@H](O)[C@H]1O [Batch P450M, α-Lactose]
- D10 [1]: 2.5 ± 0.3
- D90 [1]: 26.5 ± 0.3

Molecule: O=C(O)c1cc(=O)c2c(OCC(O)COc3cccc4oc(C(=O)O)cc(=O)c34)cccc2o1 [Cromolyn Sodium, Cromolyn sodium]
- Particle size D10 ([2]; component of Batch 1, Table 8): 0.6 μm
- Particle size D50 ([2]; component of Batch 1, Table 8): 1.8 μm
- Particle size D90 ([2]; component of Batch 1, Table 8): 3.8 μm
- Particle size D90 ([2]; component of Batch 2, Table 8): 4.2 μm
- Particle size D10 ([2]; component of Batch 3, Table 8): 0.6 μm
- Particle size D50 ([2]; component of Batch 3, Table 8): 1.8 μm
- Particle size D90 ([2]; component of Batch 3, Table 8): 3.8 μm
- D10 [1]: 0.7 ± 0.1
- D50 [1]: 1.52 ± 0.2
- D90 [1]: 3.03 ± 0.02

Molecule: O=C(O)c1cc(=O)c2c(OCC(O)COc3cccc4oc(C(=O)O)cc(=O)c34)cccc2o1 [Lot # 13-0105, Cromolyn sodium]
- D10 ([2]; listed as 13-0105): 0.5 μm
- D50 ([2]; listed as 13-0105): 1.9 μm
- D90 ([2]; listed as 13-0105): 4.6 μm

Molecule: O=C(O)c1cc(=O)c2c(OCC(O)COc3cccc4oc(C(=O)O)cc(=O)c34)cccc2o1 [Lot # 15-0013, Cromolyn sodium]
- D10 ([2]; listed as 15-0013): 0.6 μm
- D50 ([2]; listed as 15-0013): 1.8 μm
- D90 ([2]; listed as 15-0013): 3.8 μm

Molecule: O=C(O)c1cc(=O)c2c(OCC(O)COc3cccc4oc(C(=O)O)cc(=O)c34)cccc2o1 [Lot # 15-0079, Cromolyn sodium]
- D90 ([2]; listed as 15-0079): 4.2 μm

Molecule: OC[C@H]1O[C@@H](O[C@H]2[C@H](O)[C@@H](O)[C@@H](O)O[C@@H]2CO)[C@H](O)[C@@H](O)[C@H]1O [Lot# 13-0094, α-Lactose]
- D10 (3-6 μm) ([2]; listed as 13-0094): 3 μm
- D50 (20-25 μm) ([2]; listed as 13-0094): 21 μm
- D90 (50-60 μm) ([2]; listed as 13-0094): 54 μm

Molecule: OC[C@H]1O[C@@H](O[C@H]2[C@H](O)[C@@H](O)[C@@H](O)O[C@@H]2CO)[C@H](O)[C@@H](O)[C@H]1O [Lot# 15-0066, α-Lactose]
- D10 (3-6 μm) ([2]; listed as 15-0066): 4 μm
- D50 (20-25 μm) ([2]; listed as 15-0066): 23 μm
- D90 (50-60 μm) ([2]; listed as 15-0066): 57 μm

Molecule: OC[C@H]1O[C@@H](O[C@H]2[C@H](O)[C@@H](O)[C@@H](O)O[C@@H]2CO)[C@H](O)[C@@H](O)[C@H]1O [Lot# 16-0127, α-Lactose]
- D10 (3-6 μm) ([2]; listed as 16-0127): 3 μm
- D50 (20-25 μm) ([2]; listed as 16-0127): 22 μm
- D90 (50-60 μm) ([2]; listed as 16-0127): 59 μm

Molecule: OC[C@H]1O[C@@H](O[C@H]2[C@H](O)[C@@H](O)[C@@H](O)O[C@@H]2CO)[C@H](O)[C@@H](O)[C@H]1O [α-Lactose]
- Particle size D10 ([2]; component of Batch 1, Table 8): 3 μm
- Particle size D50 ([2]; component of Batch 1, Table 8): 21 μm
- Particle size D90 ([2]; component of Batch 1, Table 8): 54 μm
- Particle size D10 ([2]; component of Batch 2, Table 8): 4 μm
- Particle size D50 ([2]; component of Batch 2, Table 8): 23 μm
- Particle size D90 ([2]; component of Batch 2, Table 8): 57 μm
- Particle size D10 ([2]; component of Batch 3, Table 8): 3 μm
- Particle size D50 ([2]; component of Batch 3, Table 8): 22 μm
- Particle size D90 ([2]; component of Batch 3, Table 8): 59 μm

Molecule: Magnesium Stearate [Lot 14-0035]
- D50 (<5 μm) ([2]; listed as 14-0035): 3.56 μm
- D90 (<10 μm) ([2]; listed as 14-0035): 6.74 μm

Molecule: Magnesium Stearate [Lot 15-0077]
- D50 (<5 μm) ([2]; listed as 15-0077): 4.82 μm
- D90 (<10 μm) ([2]; listed as 15-0077): 9.28 μm

Molecule: Magnesium Stearate [Lot 18-0038]
- D50 (<5 μm) ([2]; listed as 18-0038): 4.33 μm
- D90 (<10 μm) ([2]; listed as 18-0038): 8.04 μm

Molecule: Magnesium Stearate [Mg St]
- Particle size D10 ([2]; component of Batch 1, Table 8): 3.3 μm
- Particle size D50 ([2]; component of Batch 1, Table 8): 8.3 μm
- Particle size D90 ([2]; component of Batch 1, Table 8): 22.6 μm
- Particle size D50 ([2]; component of Batch 2, Table 8): 4.82 μm
- Particle size D90 ([2]; component of Batch 2, Table 8): 9.28 μm
- Particle size D50 ([2]; component of Batch 3, Table 8): 4.33 μm
- Particle size D90 ([2]; component of Batch 3, Table 8): 8.04 μm
